Some test systems named below: Escherichia coli; Pseudomonas aeruginosa; Staphylococcus aureus.
Assay in all cases: ≥ marks a high value that may be exact or a test limit, other limits are often not marked, values filed in µg/mL are converted to µM
For assay [1], the system named is Staphylococcus aureus ATCC 43300.
Assay [2] relates to Staphylococcus aureus ATCC 29213.
For assay [3], the system named is Pseudomonas aeruginosa ATCC 27853.
In assay [4] the test system is Candida albicans ATCC 90028.
Assay [5] has as its system Escherichia coli ATCC 25922.
Assay [6] has as its system Staphylococcus epidermidis ATCC 12228.

This passage reports MIC results from DBAASP.

Converted amounts (≈) assume the structure as drawn. “And” between values parts separate entries of the source, which are not always exact repeats. Equal values may be shown once.

In general, MIC refers to the least concentration at which growth counts as inhibited. A lower MIC goes with greater potency. For the molecule `CC(C)C[C@H](NC(=O)[C@H](CCCCN)NC(=O)[C@H](C)N)C(=O)N[C@@H](Cc1c[nH]c2ccccc12)C(=O)N[C@@H](CC(C)C)C(=O)N[C@@H](CCCCN)C(=O)N[C@@H](C)C(=O)N[C@@H](C)C(=O)N[C@@H](CCCCN)C(=O)N[C@@H](CC(C)C)C(=O)N[C@@H](Cc1c[nH]c2ccccc12)C(=O)N[C@@H](CC(C)C)C(=O)N[C@@H](CCCCN)C(=O)N[C@@H](C)C(N)=O` [AKLWLKAAKLWLKA], the MIC in [1] is 16 µM (≈ 26.2 µg/mL).

Take `CC[C@H](C)[C@H](NC(=O)[C@H](CCCN=C(N)N)NC(=O)[C@H](CCC(N)=O)NC(=O)[C@@H](NC(=O)[C@@H](NC(=O)[C@H](CCCN=C(N)N)NC(=O)[C@H](C)N)[C@@H](C)CC)C(C)C)C(=O)N[C@@H](CCCCN)C(=O)N[C@@H](CC(=O)O)C(=O)N[C@@H](Cc1ccccc1)C(=O)N[C@@H](CC(C)C)C(=O)N[C@@H](CCCN=C(N)N)C(=O)O` [ARIVQRIKDFLR]: the MIC in [2] was 40 µM (≈ 60.6 µg/mL); in assay [3], 40 µM (≈ 60.6 µg/mL); in assay [4], at least 40 µM; in assay [5], 40 µM (≈ 60.6 µg/mL).

Regarding `CC(C)C[C@H](NC(=O)[C@H](Cc1ccc(O)cc1)NC(=O)[C@H](Cc1ccc(O)cc1)NC(=O)CNC(=O)[C@H](Cc1c[nH]c2ccccc12)NC(=O)[C@H](CO)NC(=O)[C@H](CO)NC(=O)[C@H](Cc1c[nH]c2ccccc12)NC(=O)[C@H](CC(C)C)NC(=O)[C@H](CCCCN)NC(=O)[C@@H](NC(=O)[C@@H](NC(=O)[C@H](CC(C)C)NC(=O)[C@@H](N)CC(=O)O)[C@@H](C)O)[C@@H](C)O)C(=O)NCC(=O)O` [DLTTKLWSSWGYYLG], in [6], the MIC was 25 µM (≈ 44.8 µg/mL).

Molecule `CC(C)C[C@H](NC(=O)[C@H](CCCCN)NC(=O)CN)C(=O)N[C@@H](Cc1c[nH]c2ccccc12)C(=O)N[C@@H](CC(C)C)C(=O)N[C@@H](CCCCN)C(=O)NCC(=O)NCC(=O)N[C@@H](CCCCN)C(=O)N[C@@H](CC(C)C)C(=O)N[C@@H](Cc1c[nH]c2ccccc12)C(=O)N[C@@H](CC(C)C)C(=O)N[C@@H](CCCCN)C(=O)NCC(=O)NCC(=O)N[C@@H](CCCCN)C(=O)N[C@@H](CC(C)C)C(=O)N[C@@H](Cc1c[nH]c2ccccc12)C(=O)N[C@@H](CC(C)C)C(=O)N[C@@H](CCCCN)C(=O)NCC(N)=O` [GKLWLKGGKLWLKGGKLWLKG] came in with a minimum inhibitory concentration (MIC) in [1] of 32 µM (≈ 75.7 µg/mL).

With `CC[C@H](C)[C@H](NC(=O)[C@H](CCSC)NC(=O)[C@H](C)NC(=O)[C@@H]1CCCN1C(=O)[C@@H](NC(=O)[C@@H](NC(=O)[C@H](CCCCN)NC(=O)[C@@H](NC(=O)[C@H](CC(C)C)NC(=O)CN)[C@@H](C)CC)[C@@H](C)CC)C(C)C)C(=O)N[C@H]1CSSC[C@@H](C(=O)O)NC(=O)[C@H](CCCCN)NC(=O)[C@H](CCCCN)NC(=O)[C@H]([C@@H](C)O)NC(=O)[C@H](C(C)C)NC(=O)[C@H](C)NC1=O` [GLIKIVPAMICAVTKKC], the MIC in assay [2], in [3] and in [5] was above 143 µM throughout.

Turning to `CC[C@H](C)[C@H](N)C(=O)N[C@@H](CC(N)=O)C(=O)N[C@@H](Cc1c[nH]c2ccccc12)C(=O)N[C@@H](CCCCN)C(=O)N[C@@H](CCCCN)C(=O)N[C@H](C(=O)N[C@@H](Cc1ccccc1)C(=O)N[C@@H](CCC(=O)O)C(=O)N[C@@H](CCCCN)C(=O)N[C@H](C(=O)N[C@@H](CCCCN)C(=O)N[C@@H](CC(N)=O)C(=O)N[C@@H](CC(C)C)C(=O)N[C@H](C(N)=O)C(C)C)C(C)C)[C@@H](C)CC` [INWKKIFEKVKNLV], the minimum inhibitory concentration (MIC) was 7.5 µM and 6.25 µM and 3.12 µM against Escherichia coli; 86.6 µM (≈ 152 µg/mL) against Pseudomonas aeruginosa; 11.8 µM (≈ 20.7 µg/mL) in the assay on Staphylococcus aureus.

`CC[C@H](C)[C@H](N)C(=O)N[C@@H](Cc1c[nH]c2ccccc12)C(=O)N[C@@H](CCCN=C(N)N)C(=O)N[C@H](C(=O)N[C@@H](Cc1ccccc1)C(=O)N[C@@H](CCCN=C(N)N)C(=O)N[C@@H](CCCN=C(N)N)C(=O)N[C@H](C(=O)N[C@@H](Cc1ccccc1)C(=O)N[C@@H](CCCN=C(N)N)C(=O)N[C@H](C(=O)N[C@@H](Cc1ccccc1)C(=O)N[C@H](C(=O)N[C@@H](CCCN=C(N)N)C(=O)N[C@@H](Cc1ccccc1)C(N)=O)[C@@H](C)CC)[C@@H](C)CC)[C@@H](C)CC)[C@@H](C)CC` [IWRIFRRIFRIFIRF]: the MIC in assay [2] amounted to 8 µM (≈ 17.1 µg/mL); in [3], 16 µM (≈ 34.2 µg/mL); in [6] it was 4 µM (≈ 8.55 µg/mL); in assay [5], 16 µM (≈ 34.2 µg/mL).

Regarding `CC(C)C[C@H](NC(=O)[C@H](CC(C)C)NC(=O)[C@H](C)NC(=O)[C@H](CCCCN)NC(=O)[C@H](C)NC(=O)[C@H](C)NC(=O)[C@H](C)NC(=O)[C@H](CC(C)C)NC(=O)[C@H](Cc1c[nH]c2ccccc12)NC(=O)[C@H](CCCCN)NC(=O)[C@H](C)NC(=O)[C@H](CC(C)C)NC(=O)[C@H](CC(C)C)NC(=O)[C@H](CCCCN)NC(=O)[C@H](CCCCN)NC(=O)[C@H](CC(C)C)NC(=O)[C@H](C)NC(=O)[C@@H](N)CCCCN)C(N)=O` [KALKKLLAKWLAAAKALL], the MIC came to 6.1 µM (≈ 11.9 µg/mL) in the assay on Escherichia coli, 12.2 µM (≈ 23.8 µg/mL) in the assay on Pseudomonas aeruginosa and 1.5 µM (≈ 2.92 µg/mL) with Staphylococcus aureus.

For `C[C@H](NC(=O)[C@H](C)NC(=O)[C@H](CCCCN)NC(=O)[C@H](C)NC(=O)[C@H](Cc1ccccc1)NC(=O)[C@H](Cc1c[nH]c2ccccc12)NC(=O)[C@H](CCCCN)NC(=O)[C@H](Cc1ccccc1)NC(=O)[C@H](CCCCN)NC(=O)[C@H](CCCCN)NC(=O)[C@H](C)NC(=O)[C@H](Cc1ccccc1)NC(=O)[C@@H](N)CCCCN)C(=O)N[C@@H](Cc1ccccc1)C(=O)N[C@@H](CCCCN)C(=O)N[C@@H](Cc1ccccc1)C(=O)N[C@@H](Cc1ccccc1)C(=O)N[C@@H](CCCCN)C(=O)N[C@@H](CCCCN)C(N)=O` [KFAKKFKWFAKAAFKFFKK], the MIC with Escherichia coli was 7.23 µM (≈ 17.3 µg/mL); against Staphylococcus aureus, 4.17 µM (≈ 10 µg/mL).

Turning to `CC(C)C[C@H](NC(=O)[C@H](C)NC(=O)[C@H](CC(C)C)NC(=O)[C@@H](N)CCCCN)C(=O)N[C@@H](CCCCN)C(=O)N[C@@H](C)C(=O)N[C@@H](C)C(=O)N[C@@H](CC(C)C)C(=O)N[C@@H](CCCCN)C(=O)N[C@@H](C)C(=O)N[C@@H](Cc1c[nH]c2ccccc12)C(=O)N[C@@H](CCCCN)C(=O)N[C@@H](C)C(=O)N[C@@H](C)C(=O)N[C@@H](C)C(=O)N[C@@H](CCCCN)C(=O)N[C@@H](CC(C)C)C(=O)N[C@@H](C)C(N)=O` [KLALKAALKAWKAAAKLA], the minimal inhibitory concentration (MIC) with Escherichia coli came out at 7.78 µM (≈ 14.5 µg/mL); in the assay with Pseudomonas aeruginosa, 45 µM (≈ 83.9 µg/mL); against Staphylococcus aureus, 45 µM (≈ 83.9 µg/mL).

With `CC[C@H](C)[C@H](NC(=O)[C@H](C)NC(=O)[C@H](CCC(N)=O)NC(=O)[C@@H](NC(=O)[C@@H](NC(=O)[C@H](CCCN=C(N)N)NC(=O)[C@@H](N)CCCCN)[C@@H](C)CC)C(C)C)C(=O)N[C@@H](CCCCN)C(=O)N[C@@H](CC(=O)O)C(=O)N[C@@H](Cc1ccccc1)C(=O)N[C@@H](CC(C)C)C(=O)N[C@@H](CCCN=C(N)N)C(=O)O` [KRIVQAIKDFLR], the minimal inhibitory concentration (MIC) was 40 µM (≈ 59.5 µg/mL) in assay [2], 40 µM (≈ 59.5 µg/mL) in [3], at least 40 µM in [4] and 40 µM (≈ 59.5 µg/mL) in assay [5].

Consider `CC[C@H](C)[C@H](NC(=O)[C@H](CCCN=C(N)N)NC(=O)[C@@H](NC(=O)[C@H](CCCN=C(N)N)NC(=O)[C@H](CCC(N)=O)NC(=O)[C@H](Cc1cnc[nH]1)NC(=O)[C@@H](NC(=O)[C@H](CCCN=C(N)N)NC(=O)[C@H](CCCN=C(N)N)NC(=O)[C@H](CCCCN)NC(=O)[C@H](CCCN=C(N)N)NC(=O)[C@H](CCCCN)NC(=O)[C@H](CO)NC(=O)[C@H](CCCN=C(N)N)NC(=O)[C@@H](N)CCCCN)[C@@H](C)CC)C(C)C)C(=O)N[C@@H](CO)C(=O)O` [KRSKRKRRIHQRVRIS], for which the minimal inhibitory concentration (MIC) (in the assay with Escherichia coli; in [5]) was above 23.8 µM each time.

As to `CC[C@H](C)[C@H](NC(=O)[C@H](Cc1ccccc1)NC(=O)[C@H](CO)NC(=O)[C@H](CCCCN)NC(=O)[C@H](Cc1c[nH]c2ccccc12)NC(=O)[C@@H](N)CCCCN)C(=O)N[C@@H](CCCCN)C(=O)N[C@@H](CCCCN)C(=O)N[C@@H](CC(C)C)C(=O)N[C@H](C(=O)N[C@@H](CO)C(=O)N[C@@H](CCCCN)C(=O)N[C@@H](Cc1ccccc1)C(=O)N[C@@H](CC(C)C)C(=O)N[C@@H](Cc1cnc[nH]1)C(=O)N[C@@H](CO)C(=O)N[C@@H](CCCCN)C(=O)N[C@@H](CCCCN)C(=O)N[C@@H](CCCCN)C(=O)N[C@@H](Cc1ccccc1)C(N)=O)[C@@H](C)O` [KWKSFIKKLTSKFLHSKKKF], the MIC against Pseudomonas aeruginosa amounted to 4.98 µM (≈ 12.5 µg/mL).

`CC[C@H](C)[C@H](NC(=O)[C@H](Cc1c[nH]c2ccccc12)NC(=O)[C@H](CCCCN)NC(=O)[C@@H](NC(=O)[C@H](CC(C)C)NC(=O)[C@H](CCCCN)NC(=O)CNC(=O)[C@@H](NC(=O)[C@@H](NC(=O)[C@H](CO)NC(=O)[C@@H](NC(=O)[C@@H](NC(=O)[C@H](CCCCN)NC(=O)[C@H](CCC(N)=O)NC(=O)[C@H](C)NC(=O)[C@@H](N)CCSC)[C@@H](C)CC)[C@@H](C)CC)[C@@H](C)O)[C@@H](C)CC)C(C)C)C(=O)N[C@H](C(=O)N[C@@H](CCCCN)C(=O)N[C@H](C(=O)N[C@H](C(=O)N[C@@H](CC(N)=O)C(=O)N[C@@H](CCCCN)C(=O)N[C@@H](Cc1ccccc1)C(=O)N[C@H](C(=O)N[C@@H](CCCCN)C(=O)N[C@@H](CCCCN)C(=O)O)[C@@H](C)O)C(C)C)[C@@H](C)O)[C@@H](C)CC` [MAQKIISTIGKLVKWIIKTVNKFTKK]: the MIC stood at 3.8 µM (≈ 11.5 µg/mL) against Escherichia coli and 20 µM (≈ 60.4 µg/mL) in the assay with Staphylococcus aureus.

Consider `CC[C@H](C)[C@H](NC(=O)[C@H](CCCN=C(N)N)NC(=O)[C@H](CCC(=O)O)NC(=O)[C@H](CCCCN)NC(=O)[C@H](CCC(=O)O)NC(=O)[C@H](CCCCN)NC(=O)[C@H](CO)NC(=O)[C@H](CC(C)C)NC(=O)[C@@H](N)[C@@H](C)O)C(=O)N[C@H](C(=O)N[C@@H](CCC(N)=O)C(=O)N[C@@H](CCCN=C(N)N)C(=O)N[C@H](C(=O)N[C@@H](CCCN=C(N)N)C(=O)N[C@H](C(=O)N[C@@H](CO)C(=O)O)[C@@H](C)O)C(C)C)C(C)C` [TLSKEKERIVQRVRTS], for which the minimal inhibitory concentration (MIC) (against Escherichia coli; in assay [5]) was above 25.9 µM each time.
